The test system of one data set is CB660. Nature of the data set: Cell viability (Cell-Titer-Glo), FK866 with or without NMN, in NSC-CB660. The note with it: CB660 cells; FK-866 alone or with NMN. Also noted: key: +: indicates similar viability compared to parental cells in ″No drug control″; −: indicates significantly diminished viability (as determined by Student's t-test). The data set is classed as cell-based, human.

The test system of the next data set is GSC 0131. In words: Cell viability, FK866 with or without NMN, in GSC 0131. The class given is cell-based, human. Also noted: key to viability compared to No drug control: +: indicates similar viability compared to parental cells in ″No drug control″; −: indicates significantly diminished viability (as determined by Student's t-test).
A further data set concerns GSC 0131 NMRK1 KO. Nature of the data set: Cell viability, FK866 with or without NMN, in GSC 0131 with NMRK1 knockout. The class given is cell-based, human. Set-up: key to viability compared to No drug control: +: indicates similar viability compared to parental cells in ″No drug control″; −: indicates significantly diminished viability (as determined by Student's t-test). As for the experimental part: (§1) Methods. Cell culture. NSC and GSC lines were grown in NeuroCult NS-A basal medium (StemCell Technologies) supplemented with B27 (Thermo Fisher), N2 (2× stock in Advanced DMEM/F-12 (Fisher) with 25 μg/mL insulin (Sigma), 100 μg/mL apo-Transferrin (Sigma), 6 ng/mL progesterone (Sigma), 16 μg/mL putrescine (Sigma), 30 nM sodium selenite (Sigma), and 50 μg/mL bovine serum albumin (Sigma), and EGF and FGF-2 (20 ng/mL each) (Peprotech) on laminin (Sigma or Trevigen) coated polystyrene plates and passaged according to previously published protocols (Pollard et al., Cell Stem Cell. 2009; 4(6):568-80). Cells were detached from their plates using Accutase (Thermo Fisher). 293T (ATCC) cells were grown in 10% FBS/DMEM (Invitrogen).
(§2) In addition, knockout of NMRK1 in GSC 0131 cells should replicate the effect of FK866 seen in GSC 0827 cells.
NMRK1 knockout. Using nucleofection (4D-Nucleofector; Amaxa) in combination with Cas9:sgRNA complexes (Synthego). Using the Synthego prediction software, 3 synthetic sgRNA guides were generated to give indel formation within the NMRK1 transcript.
Synthetic guides were mixed with recombinant cas9 and nucleofected using an Amaxa 96-well nucleofection system. Indel formation was highest with guides 1 and 2, and lowest with guide 3. Combining guides 1 and 2 yielded >90% indel formation. […]

Another data set concerns GSC 0827. In words: Cell viability, FK866 with or without NMN, in GSC 0827 (NMRK1 low). The class given is cell-based, human. Set-up: key to viability compared to No drug control: +: indicates similar viability compared to parental cells in ″No drug control″; −: indicates significantly diminished viability (as determined by Student's t-test). The note with it: for rescue of FK866-treated cells with NMN: GSC-0827 cells, in the presence of FK866. Here is the method:
as §1
Metabolic inhibitors screen protocol and data analysis. 230 metabolic inhibitors were screened in GSC lines (0131 and 827) and NSC CB660 cell line grown in 96-well optical bottom plates. After 24 hours, inhibitors were diluted in cell media and added to plated cells. Inhibitor concentration was based on IC 50 for the target enzymes, with 1× being the IC50 0.25× being the lower concentration and 5× being the higher concentration. Each concentration was tested in triplicate. After 48 hours, cell viability was measured via Cell-Titer-Glo. A z-score was established for each compound concentration, based on Untreated and Puromycin treated cells. Positive candidates were defined as compounds with a z-score less than that of CB660 cells. Positive candidates were rescreened to verify results.
NMN and NR Complementation studies. To verify if selectivity of NAMPT inhibition relied on downregulation of salvaging pathways, 827 cells were tested on cell viability in the presence of FK866 and the addition of NMN.

The test system of the next data set is GSC 0827 + NMRK1. Nature of the data set: Cell viability, FK866 with or without NMN, in GSC 0827 ectopically expressing NMRK1. The data set is classed as cell-based, human. Also noted: key to viability compared to No drug control: +: indicates similar viability compared to parental cells in ″No drug control″; −: indicates significantly diminished viability (as determined by Student's t-test). Here is the method: as §1, §2
Cloning of NMRK1 ORF and NMRK1 complementation studies. […] This could be used as negative control for transfection purposes.
NMRK1 was then synthesized as a g-block based on HEK293T genomic DNA sequence:
Insertion of the purified product into vector was accomplished via Gibson assembly using NEB HiFi DNA Assembly Master Mix Kit with BamHI pre-cut pLX304 vector for expression in GBM cell lines.
Once cloned into the pLX304 backbone, the NMRK1 expressing plasmid was prepared for nucleofection and introduced into GBM 0827 cell lines. […]

For data set [1], the system named is GSCs (0131 and 0827) and control hNPC-CB660 cells. In words: Metabolic inhibitor library screen and retest, GSCs versus control neural stem cells. The data set is classed as cell-based, human. The note with it: 48 hrs; Cell titerglo assay; n=3. Here is the method:
Example 1. To Identify New Metabolic Vulnerabilities in Human GSCs, a Chemical Library screen was performed using […] inhibitors of metabolic enzymes in two GSCs (0131 and 0827) and control hNPC-CB660 cells. […] To further explore this phenotype, an NAD salvage substrate, NMN was used, to bypass the requirement for NAMPT and rescue cytotoxicity. NMN is a substrate for the ectoenzyme CD73 (Ratajczak J et al., Nature communications. 2016; 7:13103), which generates NR, which is transported intracellular by equilibrative nucleoside transporters. (Nikiforov et al., J Biol Chem. 2011; 286(24):21767-78.) Intracellular NR is phosphorylated by NMRK in a NAMPT-independent NAD salvage pathway.
Methods. Cell culture. […]
Metabolic inhibitors screen protocol and data analysis. […] After 48 hours, cell viability was measured via Cell-Titer-Glo. […]

For data set [2] the following is noted: cited from earlier work.

Molecules are shown by their SMILES. “Also recorded” adds a separate entry of the source.

Regarding `O=C(/C=C/c1cccnc1)NCCCCC1CCN(C(=O)c2ccccc2)CC1` [FK866, (E)-N-[4-(1-benzoyl-4-yl)-butyl]-3-(pyridin-3-yl) acrylamide], the “viability compared to No drug control” value with CB660 is listed as “+”; in the data set with GSC 0131 (GSC 0131 cells, FK-866 alone or with NMN), “−”; in the data set with GSC 0131 NMRK1 KO (GSC 0131 NMRK1 KO cells, FK-866 alone or with NMN), “−”; with GSC 0827 (GSC 0827 cells, FK-866 alone or with NMN), “−”; with GSC 0827 + NMRK1 (GSC 0827 + NMRK1 cells, FK-866 alone or with NMN) it was “−”. Besides, the “rescue of FK866-treated cells with NMN” value in the data set with GSC 0827 is “remained exquisitely sensitive; also recorded: cannot be overcome”. In addition, in data set [1], the “selectivity of cytotoxicity for GSCs over neural stem cells” value was “GSC-selective cytotoxicity; also recorded: GSC and transformation specificity”. Further, the “toxicity in clinical trials” value in data set [2] is “dose-limiting toxicities”.
For `NC(=O)c1ccc[n+]([C@@H]2O[C@H](COP(=O)([O-])O)[C@@H](O)[C@H]2O)c1` [NMN, nicotinamide mononucleotide], the “rescue of FK866-treated cells with NMN” value in the data set with GSC 0131 (GSC-0131 cells, in the presence of FK866) was “could be rescued; also recorded: sufficient to rescue; also recorded: can be complemented”; in the data set with GSC 0131 NMRK1 KO (GSC-0131 cells with NMRK1 knockout, in the presence of FK866), “rescue was prevented”; in the data set on GSC 0827, “not”; in the data set with GSC 0827 + NMRK1 (GSC-0827 cells with ectopic NMRK1 expression, in the presence of FK866) it was “sufficient to rescue; also recorded: demonstrated rescue; also recorded: allows utilization”.

The record behind these values is US12714722B2, “Cancer combination therapies utilizing a nicotinamide phosphoribosyltransferase inhibitor in combination with a nicotinamide adenine dinucleotide salvage pathway precursor” (Fred Hutchinson Cancer Center, priority 2019, dated 2026).
